Measured values taken from a melting point compilation (Tetko et al.; mined from patent text by program, amines drawn as free bases though some values may be those of a salt).

| SMILES | melting point |
| --- | --- |
| COc1ccc(CC(NC(=O)OCc2ccccc2)C(=O)C=[N+]=[N-])cc1 (centres undefined) | 88 to 90 °C |
| CCOC(C)(OCC)C(=O)c1c[nH]c2ncc(-c3cc(OC)c(OC)c(OC)c3)nc12 | 198 to 201 °C |
| CC(=O)OCCOC(=O)C1=C(C)NC(C)=C(C(=O)CS(=O)(=O)NC(C)C)C1c1cccc([N+](=O)[O-])c1 (centres undefined) | 133 to 136 °C |
| Cc1nc(NN)c2c(n1)NC(=O)CO2 | 262 to 264 °C |
| COc1cc(C)c(C(=O)c2c(C)cccc2OC)c(OC)c1OC | 84 °C |
| CCOc1c(/C=C/c2ccc(NS(C)(=O)=O)cc2)cc(-n2ccc(=O)[nH]c2=O)cc1C(C)(C)C | 265 to 266 °C |
| O=CC=Cc1cnn(-c2c(Cl)cc(C(F)(F)F)cc2Cl)n1 | 68 to 69 °C |
| CC(OC(=O)NCC1(CC(=O)O)CCCCC1)OC(=O)C(C)C (centres undefined) | 63 to 64 °C |
| CCc1nccn1CCCOCc1cccc(SC)c1NC(=O)CC1c2ccccc2Oc2ccccc21 | 159 to 160 °C |
| CCCCCCCCCC(CC)C(=O)Nc1cc(C(=O)O)ccc1C (racemic) | 217 to 220 °C |
| N#Cc1ccc(CCC(=O)C2CC2)cc1 | 76 °C |
| Cc1cc(C2=CCC(c3ccc(OCC4CO4)cc3)CC2)ccc1OCC1CO1 (centres undefined) | 117 °C |
| CC(=O)c1c(C)c2cnc(Nc3ccc(N4CCOCC4)nc3)nc2n(C2CCCC2)c1=O | 224 to 226 °C |
| C=CCOC(=O)CCCCCCCCCCCCCCCCC | 35 to 36 °C |
| CC(C)CC1C(OC2CCCCO2)CC(=O)N1C(=O)OC(C)(C)C (centres undefined) | 81 to 83 °C |
| COc1ccc(-n2cc(C#N)c(=O)[nH]c2=O)c(C)c1 | 276 to 278 °C |
| CCOC(=O)CSCc1cccc(-c2c(CC(=O)Nc3ccc(F)cc3C(F)(F)F)c(=O)oc3cc(Cl)c(C)cc23)c1 | 106 to 108 °C |
| O=C1C[C@@H]2O[C@@H](CS(=O)(=O)Cc3ccccc3)CN12 (racemic) | 137 to 145 °C |
| O=c1nc(Cl)cnn1-c1cc(Cl)cc(Cl)c1 | 148 to 149 °C |
| O=C(NCCc1ccc([N+](=O)[O-])cc1)C(F)(F)F | 96 to 97 °C |
| CN(C)S(=O)(=O)c1ccc(-c2ccc(-c3ccc(S(=O)(=O)N(C)C)c(S)c3)cc2)cc1S | 194 °C |
| Cn1cncc1C(O)(c1ccc(Cl)cc1)c1ccc2nc(-c3cccnc3)nc(-c3cccc(Cl)c3)c2c1 (centres undefined) | 178 °C |
| COCOc1ccccc1-c1cc(-c2cccc(C(=O)NC3CCCN(C(=O)OC(C)(C)C)C3)c2)c(C#N)c(NC(=O)c2cccs2)n1 (centres undefined) | 167 to 168 °C |
| Cc1cccc2c1N(C)C(=O)C(NC(=O)Nc1cccc(-c3nnn[nH]3)c1)N=C2C1CCCCC1 (centres undefined) | 199 to 201 °C |

| SMILES | melting point |
| --- | --- |
| CNC(=O)[C@@H]1CCC[C@@H]1Nc1nc(Nc2ccc3c(c2)CCN(CCOC)CC3)ncc1Cl (relative stereo) | 176 °C |
| O=C(c1ccccc1)N1CCc2[nH]c3cccc(CCCOc4ccccc4)c3c2CC1 | 121 to 124 °C |
| OC(c1cc2ccccc2s1)C1CCN(CCc2ccccc2)CC1 (centres undefined) | 178 °C |
| CCOC(=O)CCCOc1ccc(CC(C)(C)N)cc1 | 103 to 105 °C |
| COc1ccc(C2=NN(CCc3ccccc3)C(=O)[C@H]3CCCC[C@@H]23)cc1OC (relative stereo) | 99 to 100 °C |
| CCCC1(CCC)CC1(CN)C(=O)O (centres undefined) | 255 to 257 °C |
| OCc1cnn(C(c2ccccc2)(c2ccccc2)c2ccccc2)c1 | 181 to 184 °C |
| O=C(CCNC(=O)C(Cc1ccccc1)CP(=O)(O)O)OCc1ccccc1 (centres undefined) | 122 to 123 °C |
| CCCCCCCCCCCCCCCC(=O)OCc1ccco1 | 31 to 33 °C |
| CC(C)CN(C)C1=NS(=O)(=O)c2cccc(Cl)c21 | 160 to 162 °C |
| C=Cc1ccc(OCc2ccccc2)cc1OCC(=O)c1ccc(OC)cc1 | 93 to 94 °C |
| O=C(OC(c1ccccc1)c1ccccc1)C1=CCC2C1C(=O)C2(Cl)Cl (centres undefined) | 96 to 97 °C |
| CN(CC(=O)c1cccn1Cc1ccccc1[N+](=O)[O-])Cc1ccccc1 | 103 to 105 °C |
| COC(=O)c1ccccc1S(=O)(=O)NC(=Nc1nc(C)cc(OC)n1)SC | 143 to 144 °C |
| Cc1c(C(=O)O)ccc2c1C(O)CCS2(=O)=O (centres undefined) | 172 to 173 °C |
| CCOC(=O)/C=C/c1cn(Cc2ccccc2)nc1OCc1ccc(OCc2nc(-c3ccco3)oc2C)c(OC)c1 | 147 to 148 °C |
| CNC(=O)N(C)C1c2ccccc2Oc2ccccc21 | 173 to 174 °C |
| Cc1nc(-c2cccc(Cn3ccc4nc(C(C)C)n(Cc5ccc6ccc(-c7noc(C)n7)cc6c5)c4c3=O)c2)no1 | 108 to 109 °C |
| CCN(CCCP(=O)(O)O)S(=O)(=O)C(F)(F)C(F)(F)C(F)(F)C(F)(F)F | 138 to 140 °C |
| N#Cc1ccc(CC2CCN(C(=O)C(=O)Nc3ccc4[nH]c(=O)oc4c3)CC2)cc1 | 194 °C |
| O=C(O)c1cnc2n1CCc1ccccc1C2=C1CCN(CCc2ccc(OCc3ccc4ccccc4n3)cc2)CC1 | 174 °C |
| CC(C)(C)OC(=O)CN1CCCNc2c1c(=O)c2=O | 167 to 168 °C |
| Cc1ccc(-c2c(CNC(=O)OC(C)(C)C)n(CC(C)C)c(=O)c3ccc(C(=O)O)cc23)cc1 | 230 to 231 °C |
| CC(C)CC(S)C(=O)NC(Cc1ccc(Br)nc1)C(=O)NC(Cc1ccc(-c2cccs2)nc1)C(=O)O (centres undefined) | 194 to 195 °C |

Next, values leading:

| melting point | SMILES |
| --- | --- |
| 52 to 55 °C | N#CCCC(C#N)CSc1ccc2ccccc2c1 (centres undefined) |
| 217 to 219 °C | Cn1cc(C2=C(c3ccncc3)C(=O)OC2=O)c2ccccc21 |
| 185 to 188 °C | Cn1c(CC(=O)O)cc2ccc3ccsc3c(=O)c21 |
| 96 to 98 °C | CC(Oc1ncc(F)c(N)n1)c1ccc(F)cc1 (centres undefined) |
| 258 °C | COc1ccccc1-c1nc2cc(NC(=O)c3c(C(=O)N4CCC4)cnn3C)ccn2n1 |
| 157 to 158 °C | CCOC(=O)c1ccc(-c2nc(COc3ccc(CCl)cc3OCC)c(C)o2)s1 |
| 184 to 188 °C | COC(=N)c1ccc(-c2ccc([N+](=O)[O-])cc2)o1 |
| 111 °C | COc1ccc(Cc2nccc3c4c(ccc23)OCO4)cc1OC |
| 150 to 152 °C | Cc1cccn2c(=O)cc(/C=C/c3ccccc3)nc12 |
| 46 to 50 °C | Cc1ccc(-c2noc(CC(F)=C(F)F)n2)cc1 |
| 264 to 265 °C | Cn1c(=O)[nH]c2ccc(-c3cccc([N+](=O)[O-])c3)cc21 |
| 115 to 117 °C | COc1cc(C(F)(F)F)cnc1O |
| 104 to 107 °C | CC(C)(C)OC(=O)Cc1nc(Sc2ccccc2)ccc1[N+](=O)[O-] |
| 104 to 107 °C | CCOC(=O)c1cccn1Cc1ccc(Cl)cc1N |
| 224 to 228 °C | COC1(c2cc(OCc3ccc4c(c3)OCCC4=NO)nc(N)n2)CCOCC1 |
| 155 to 157 °C | CC(C)n1nc(-c2sc(C(=O)NCc3ccncc3)nc2-c2ccc(F)cc2)ccc1=O |
| 149 to 150 °C | CC=CC=CC(O)c1ccc(-c2nc(C)c3c(n2)sc2c(OCC)nc(N4CCNCC4)nc23)cc1 (centres undefined) |
| 180 to 182 °C | CN(C)c1cccc2c(S(=O)(=O)Nc3cnc(Br)c(Cl)n3)cccc12 |
| 122 °C | CSC(C#N)c1cccc(C(=O)c2ccc(Cl)cc2)c1N (centres undefined) |
| 141 to 142 °C | CCc1cccc(C)c1NCc1nccc2c1nc(C)n2C |
| 170 to 172 °C | NC(=O)[C@H]1CCc2[nH]c3ccc(F)cc3c2C1 |
